Data from patent US20210255193A1, “LYSINE REACTIVE PROBES AND USES THEREOF” (The Scripps Research Institute, priority 2017, published 2021).

Legend:
Assay in all cases: competitive isoTOP-ABPP
Assay type in all cases: binding
[1] = biological target: T1, ERO1L ERO1-like protein alpha (Homo sapiens, UniProt Q96HE7); settings: for isoTOP-ABPP ratio, lysine Q96HE7_K413: possible other lysine Q86YB8_K412
T1 construct: isoTOP-ABPP experiments performed in cell lysates (in vitro); endogenous in cells; host or cells: soluble proteome of human cancer cell lines (MDA-MB-231; Ramos and Jurkat also prepared)
T1 sequence (Q96HE7 24-468): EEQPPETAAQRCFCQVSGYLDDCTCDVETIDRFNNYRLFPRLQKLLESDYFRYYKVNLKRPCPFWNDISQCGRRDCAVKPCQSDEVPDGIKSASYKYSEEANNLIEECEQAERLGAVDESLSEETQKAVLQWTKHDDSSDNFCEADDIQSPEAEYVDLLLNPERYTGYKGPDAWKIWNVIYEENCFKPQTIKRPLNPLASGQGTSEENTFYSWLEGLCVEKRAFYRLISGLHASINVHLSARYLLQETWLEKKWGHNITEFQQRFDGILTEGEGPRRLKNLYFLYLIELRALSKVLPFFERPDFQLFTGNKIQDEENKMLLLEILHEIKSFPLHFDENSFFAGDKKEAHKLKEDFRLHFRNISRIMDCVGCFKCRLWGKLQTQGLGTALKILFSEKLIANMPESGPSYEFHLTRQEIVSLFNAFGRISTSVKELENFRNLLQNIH
Method in brief: (§1)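 Here, isoTOP-ABPP measures loss of STP-alkyne labeling at individual lysines after fragment exposure in lysate. Activated esters are dosed at 50 μM, guanidinylating agents at 100 μM; the probe follows at 0.1 mM for 1 h. R ≥4 marks a liganded lysine.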

[2] = biological target: T2, NLN Neurolysin, mitochondrial (Homo sapiens, UniProt Q9BYT8); settings: for R value (DMSO/fragment) for probe 1 labeling: Q9BYT8_K253; for R value (DMSO/fragment) for probe 1 labeling / isoTOP-ABPP reactivity ratio at lysine Q9BYT8_K253 / isoTOP-ABPP ratio (R) at liganded lysine Q9BYT8_K253: 50 uM, in vitro; for R value (DMSO/fragment) for probe 1 labeling / isoTOP-ABPP reactivity ratio at lysine Q9BYT8_K253: 231 sol; for isoTOP-ABPP ratio (R) at liganded lysine Q9BYT8_K253: sol, 231
T2 construct: isoTOP-ABPP experiments performed in cell lysates (in vitro); endogenous in cells; host or cells: soluble proteome of human cancer cell lines (MDA-MB-231; Ramos and Jurkat also prepared)
T2 sequence (Q9BYT8 38-704): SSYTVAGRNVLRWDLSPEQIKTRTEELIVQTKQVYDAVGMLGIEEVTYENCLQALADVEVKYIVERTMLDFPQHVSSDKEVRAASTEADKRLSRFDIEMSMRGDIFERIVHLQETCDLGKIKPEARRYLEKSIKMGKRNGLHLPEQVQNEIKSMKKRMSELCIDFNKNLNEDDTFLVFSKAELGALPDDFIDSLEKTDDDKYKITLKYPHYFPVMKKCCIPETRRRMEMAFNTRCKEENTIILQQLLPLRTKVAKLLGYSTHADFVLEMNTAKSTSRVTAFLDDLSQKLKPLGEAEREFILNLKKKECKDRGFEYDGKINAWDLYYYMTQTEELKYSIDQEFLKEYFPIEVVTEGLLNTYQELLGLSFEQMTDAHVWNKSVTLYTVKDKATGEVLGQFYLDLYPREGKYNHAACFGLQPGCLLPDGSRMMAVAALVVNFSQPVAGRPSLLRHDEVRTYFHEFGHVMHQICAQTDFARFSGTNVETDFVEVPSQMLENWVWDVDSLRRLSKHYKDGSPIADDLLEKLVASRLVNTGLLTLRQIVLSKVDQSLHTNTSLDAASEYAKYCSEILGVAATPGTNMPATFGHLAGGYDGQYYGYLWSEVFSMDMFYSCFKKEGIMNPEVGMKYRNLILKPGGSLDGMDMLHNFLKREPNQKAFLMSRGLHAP
Method in brief: as §1

[3] = biological target: T3, MRPL12 39S ribosomal protein L12, mitochondrial (Homo sapiens, UniProt P52815); settings: for isoTOP-ABPP ratio (R) at liganded lysine P52815_K87: sol, 231; for isoTOP-ABPP ratio, lysine P52815_K87: 50 uM_231_sol_in vitro, possible other lysine B4DLN1_K87, P52815_K91
T3 construct: isoTOP-ABPP experiments performed in cell lysates (in vitro); endogenous in cells; host or cells: soluble proteome of human cancer cell lines (MDA-MB-231, Ramos, Jurkat)
Method in brief: as §1

[4] = biological target: T4, SOD2 Superoxide dismutase (Homo sapiens, UniProt P04179); settings: for isoTOP-ABPP ratio (R) at liganded lysine P04179_K68: sol, 231
T4 construct: isoTOP-ABPP experiments performed in cell lysates (in vitro); endogenous in cells; host or cells: MDA-MB-231 soluble lysate
T4 sequence (P04179 25-222): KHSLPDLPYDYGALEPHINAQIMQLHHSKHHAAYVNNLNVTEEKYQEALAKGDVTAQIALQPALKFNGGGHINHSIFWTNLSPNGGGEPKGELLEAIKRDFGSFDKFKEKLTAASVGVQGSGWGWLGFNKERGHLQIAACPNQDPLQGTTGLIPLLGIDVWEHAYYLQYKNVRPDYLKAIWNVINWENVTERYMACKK
Method in brief: as §1

[5] = biological target: T5, DTYMK Thymidylate kinase (Homo sapiens, UniProt P23919); settings: for isoTOP-ABPP reactivity ratio at lysine P23919_K118: 50 uM, 231 sol, in vitro
T5 construct: isoTOP-ABPP experiments performed in cell lysates (in vitro); endogenous in cells; host or cells: soluble proteome of human cancer cell lines (MDA-MB-231; Ramos and Jurkat also prepared)
T5 sequence (P23919 1-212): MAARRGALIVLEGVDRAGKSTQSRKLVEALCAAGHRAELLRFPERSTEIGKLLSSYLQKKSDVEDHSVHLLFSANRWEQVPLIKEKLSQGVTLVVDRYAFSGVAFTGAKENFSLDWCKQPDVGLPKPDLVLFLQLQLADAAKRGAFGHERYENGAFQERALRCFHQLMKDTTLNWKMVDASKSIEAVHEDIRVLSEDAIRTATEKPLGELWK
Method in brief: as §1

[6] = biological target: T6, FAM136A Protein FAM136A (Homo sapiens, UniProt Q96C01); settings: for isoTOP-ABPP reactivity ratio at lysine Q96C01_K99 / isoTOP-ABPP ratio (R) at liganded lysine Q96C01_K99: 50 uM, in vitro; for isoTOP-ABPP reactivity ratio at lysine Q96C01_K99: 231 sol; for isoTOP-ABPP ratio (R) at liganded lysine Q96C01_K99: sol, 231
T6 construct: isoTOP-ABPP experiments performed in cell lysates (in vitro); endogenous in cells; host or cells: soluble proteome of human cancer cell lines (MDA-MB-231; Ramos and Jurkat also prepared)
T6 sequence (Q96C01 whole entry): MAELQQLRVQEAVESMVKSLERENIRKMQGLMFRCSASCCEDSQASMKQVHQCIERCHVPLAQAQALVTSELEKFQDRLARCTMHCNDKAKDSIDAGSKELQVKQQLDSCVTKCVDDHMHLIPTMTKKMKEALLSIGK
Method in brief: as §1

O=C(CCc1cn(-c2ccccc2)nc1-c1ccccc1)Oc1c(F)c(F)c(F)c(F)c1F [fragment 19, Pentafluorophenyl 3-(1,3-diphenyl-1H-pyrazol-4-yl)propanoate]
R value (DMSO/fragment) for probe 1 labeling ([1]; Q96HE7_K413, 50 uM, 231 sol, in vitro): 0.5 | R value (DMSO/fragment) for probe 1 labeling [2]: 1.0

Cn1cc(CC(=O)Oc2c(F)c(F)c(F)c(F)c2F)c2ccccc21 [fragment 22, Pentafluorophenyl 2-(1-methyl-1H-indol-3-yl)acetate]
R value (DMSO/fragment) for probe 1 labeling ([3]; P52815_K87, 50 uM, 231 sol, in vitro): 1.4 | R value (DMSO/fragment) for probe 1 labeling [2]: 1.5 | R value (DMSO/fragment) for probe 1 labeling ([4]; P04179_K68, 50 uM, 231 sol, in vitro): 1.0

O=C(Oc1c(F)c(F)c(F)c(F)c1F)C1CCN(C(=O)OCc2ccccc2)CC1 [fragment 24, 1-Benzyl 4-(pentafluorophenyl) piperidine-1,4-dicarboxylate]
isoTOP-ABPP reactivity ratio at lysine P23919_K118 [5]: 1.1

O=C(Oc1c(F)c(F)c(F)c(F)c1F)c1ccc2ccccc2n1 [fragment 25, Pentafluorophenyl quinoline-2-carboxylate]
isoTOP-ABPP reactivity ratio at lysine Q9BYT8_K253 [2]: 0.9 | isoTOP-ABPP reactivity ratio at lysine P23919_K118 [5]: 1.1

O=C(CCc1coc2cc(F)ccc2c1=O)Oc1c(F)c(F)c(F)c(F)c1F [fragment 26, Pentafluorophenyl 3-(7-fluoro-4-oxo-4H-chromen-3-yl)propanoate]
isoTOP-ABPP reactivity ratio at lysine Q9BYT8_K253 [2]: 1.2 | isoTOP-ABPP reactivity ratio at lysine Q96C01_K99 [6]: 0.9 | isoTOP-ABPP reactivity ratio at lysine P04179_K68 ([4]; 50 uM, 231 sol, in vitro): 1.2

O=C(CN1C(=O)c2ccccc2C1=O)Oc1c(F)c(F)c(F)c(F)c1F [fragment 27, Pentafluorophenyl 2-(1,3-dioxoisoindolin-2-yl)acetate]
isoTOP-ABPP reactivity ratio at lysine P04179_K68 ([4]; 50 uM, 231 sol, in vitro): 0.9

O=C(Oc1ccc([N+](=O)[O-])cc1[N+](=O)[O-])C(c1ccccc1)c1ccccc1 [fragment 30, 2,4-Dinitrophenyl 2,2-diphenylacetate]
isoTOP-ABPP reactivity ratio at lysine Q96HE7_K413 ([1]; 50 uM, 231 sol, in vitro): 1.2 | isoTOP-ABPP reactivity ratio at lysine Q9BYT8_K253 [2]: 1.3 | isoTOP-ABPP reactivity ratio at lysine Q96C01_K99 [6]: 0.8 | isoTOP-ABPP reactivity ratio at lysine P04179_K68 ([4]; 50 uM, 231 sol, in vitro): 1.1

O=C(Oc1ccc([N+](=O)[O-])cc1[N+](=O)[O-])c1cc(C(F)(F)F)cc(C(F)(F)F)c1 [fragment 31, 2,4-Dinitrophenyl 3,5-bis(trifluoromethyl)benzoate]
isoTOP-ABPP reactivity ratio at lysine Q9BYT8_K253 [2]: 1.5 | isoTOP-ABPP reactivity ratio at lysine P04179_K68 ([4]; 50 uM, 231 sol, in vitro): 1.5

Cn1cc(CC(=O)Oc2ccc([N+](=O)[O-])cc2[N+](=O)[O-])c2ccccc21 [fragment 32, 2,4-Dinitrophenyl 2-(1-methyl-1H-indol-3-yl)acetate]
isoTOP-ABPP reactivity ratio at lysine Q96HE7_K413 ([1]; 50 uM, 231 sol, in vitro): 20.0 | isoTOP-ABPP reactivity ratio at lysine Q9BYT8_K253 [2]: 1.7 | isoTOP-ABPP reactivity ratio at lysine Q96C01_K99 [6]: 0.9 | isoTOP-ABPP reactivity ratio at lysine P04179_K68 ([4]; 50 uM, 231 sol, in vitro): 1.1

O=C(Oc1ccc([N+](=O)[O-])cc1[N+](=O)[O-])C1CCN(C(=O)OCc2ccccc2)CC1 [fragment 34, 1-Benzyl 4-(2,4-dinitrophenyl) piperidine-1,4-dicarboxylate]
isoTOP-ABPP ratio (R) at liganded lysine Q96C01_K99 [6]: 1.2

O=C(CCc1coc2cc(F)ccc2c1=O)Oc1ccc([N+](=O)[O-])cc1[N+](=O)[O-] [fragment 36, 2,4-Dinitrophenyl 3-(7-fluoro-4-oxo-4H-chromen-3-yl)propanoate]
isoTOP-ABPP ratio (R) at liganded lysine Q96C01_K99 [6]: 0.8 | isoTOP-ABPP ratio (R) at liganded lysine P04179_K68 ([4]; 50 uM, in vitro): 2.1

O=C(CC12CC3CC(CC(C3)C1)C2)Oc1ccc([N+](=O)[O-])cc1[N+](=O)[O-] [fragment 38, 2,4-Dinitrophenyl 2-(adamantan-1-yl)acetate]
isoTOP-ABPP ratio (R) at liganded lysine P52815_K87 ([3]; 50 uM, in vitro): 0.9 | isoTOP-ABPP ratio (R) at liganded lysine Q9BYT8_K253 [2]: 0.8

O=C(Oc1ccc([N+](=O)[O-])cc1[N+](=O)[O-])c1ccccc1Nc1cccc(C(F)(F)F)c1 [fragment 40, 2,4-Dinitrophenyl 2-((3-(trifluoromethyl)phenyl)amino)benzoate]
isoTOP-ABPP ratio (R) at liganded lysine Q9BYT8_K253 [2]: 0.9 | isoTOP-ABPP ratio (R) at liganded lysine Q96C01_K99 [6]: 0.8

O=C(Oc1ccc([N+](=O)[O-])cc1[N+](=O)[O-])C(c1ccccc1)(c1ccccc1)c1ccccc1 [fragment 42, 2,4-Dinitrophenyl 2,2,2-triphenylacetate]
isoTOP-ABPP ratio (R) at liganded lysine P52815_K87 ([3]; 50 uM, in vitro): 1.0 | isoTOP-ABPP ratio (R) at liganded lysine Q9BYT8_K253 [2]: 0.8 | isoTOP-ABPP ratio (R) at liganded lysine Q96C01_K99 [6]: 0.9

CC(=O)Oc1ccc([N+](=O)[O-])cc1[N+](=O)[O-] [fragment 43, 2,4-Dinitrophenyl acetate]
isoTOP-ABPP ratio (R) at liganded lysine Q96HE7_K413 ([1]; 50 uM, in vitro, sol, 231): 2.0 | isoTOP-ABPP ratio (R) at liganded lysine Q9BYT8_K253 [2]: 0.8 | isoTOP-ABPP ratio (R) at liganded lysine Q96C01_K99 [6]: 1.1 | isoTOP-ABPP ratio (R) at liganded lysine P04179_K68 ([4]; 50 uM, in vitro): 1.4

N#Cc1ccc(C(=O)Oc2ccc([N+](=O)[O-])cc2[N+](=O)[O-])cc1 [fragment 44, 2,4-Dinitrophenyl 4-cyanobenzoate]
isoTOP-ABPP ratio, lysine Q96HE7_K413 ([1]; 50 uM_231_sol_in vitro): 1.9 | isoTOP-ABPP ratio, lysine P52815_K87 [3]: 1.1 | isoTOP-ABPP ratio, lysine P04179_K68 ([4]; 50 uM_231_sol_in vitro): 1.6

O=C(CCc1ccc2c(c1)OCO2)Oc1ccc([N+](=O)[O-])cc1[N+](=O)[O-] [fragment 45, 2,4-Dinitrophenyl 3-(benzo[d][1,3]dioxol-5-yl)propanoate]
isoTOP-ABPP ratio, lysine P52815_K87 [3]: 1.8 | isoTOP-ABPP ratio, lysine Q9BYT8_K253 ([2]; 50 uM_231_sol_in vitro): 1.3 | isoTOP-ABPP ratio, lysine Q96C01_K99 ([6]; 50 uM_231_sol_in vitro): 1.0 | isoTOP-ABPP ratio, lysine P04179_K68 ([4]; 50 uM_231_sol_in vitro): 0.9

O=C(ON1C(=O)CCC1=O)c1cc(C(F)(F)F)cc(C(F)(F)F)c1 [fragment 46, 3,5-Bis(trifluoromethyl)benzoic acid NHS ester]
isoTOP-ABPP ratio, lysine Q96HE7_K413 ([1]; 50 uM_231_sol_in vitro): 6.5 | isoTOP-ABPP ratio, lysine P52815_K87 [3]: 0.6 | isoTOP-ABPP ratio, lysine Q9BYT8_K253 ([2]; 50 uM_231_sol_in vitro): 1.5 | isoTOP-ABPP ratio, lysine Q96C01_K99 ([6]; 50 uM_231_sol_in vitro): 0.6 | isoTOP-ABPP ratio, lysine P04179_K68 ([4]; 50 uM_231_sol_in vitro): 0.9

O=C(Oc1c(F)c(F)c(C(F)(F)F)c(F)c1F)c1cc(C(F)(F)F)cc(C(F)(F)F)c1 [fragment 47, 2,3,5,6-Tetrafluoro-4-(trifluoromethyl)phenyl 3,5-bis(trifluoromethyl)benzoate]
isoTOP-ABPP ratio, lysine P52815_K87 [3]: 1.1 | isoTOP-ABPP ratio, lysine P23919_K118 ([5]; 50 uM_231_sol_in vitro): 0.9 | isoTOP-ABPP ratio, lysine Q96C01_K99 ([6]; 50 uM_231_sol_in vitro): 0.7

COC(=O)NC(=NC(=O)OCC1c2ccccc2-c2ccccc21)n1cccn1 [fragment 49, N-Methoxycarbonyl-N′-9-fluorenylmethoxycarbonyl-pyrazole-1-carboxamidine]
isoTOP-ABPP ratio, lysine Q96C01_K99 ([6]; 100 uM_231_sol_in vitro): 1.3 | isoTOP-ABPP ratio, lysine P04179_K68 ([4]; 100 uM_231_sol_in vitro): 3.3

CC(C)(C)OC(=O)N=C(NC(=O)OC(C)(C)C)n1cccn1 [fragment 50, reference compound]
isoTOP-ABPP ratio, lysine Q96HE7_K413 ([1]; 100 uM_231_sol_in vitro): 1.4 | isoTOP-ABPP ratio, lysine Q9BYT8_K253 ([2]; 100 uM_231_sol_in vitro): 1.2

NC(=O)c1cc(C(F)(F)F)cc(C(F)(F)F)c1 [fragment 51, reference compound]
isoTOP-ABPP ratio, lysine P52815_K87 [3]: 0.9 | isoTOP-ABPP ratio, lysine P04179_K68 ([4]; 50 uM_231_sol_in vitro): 0.9
